The test system of series [1] is methicillin-resistant Staphylococcus aureus ATCC 43300.
The test system is the same in series [2]. The series can be described thus: microbe, parasite or virus in culture. The following applies: ATCC43300 / MRSA, 18 h.
Series [3] relates to MRSA (ATCC 43300). The series can be described thus: Killing kinetics / growth inhibition. The class given is cell-based, Staphylococcus aureus. The settings on record: PIS-A-1 1/4 MIC or APC 1/8 MIC alone; OD600, 37 °C. On the procedure: Likewise, the killing kinetics of antimicrobial agents against bacteria was tested. Briefly, 100 μL of antimicrobial agents were diluted two-fold in 96-well plates. Then, 100 μL of bacterial inoculum (1.5 × 10^6 CFU mL^−1) was appended and incubated at 37 °C. At a fixed time, the OD600 value of each well in the plate was measured by using a microplate reader (SpectraMax i3, Molecular Devices, USA).

For series [4], the system named is Caco-2 cells. Put plainly: Cytotoxicity, MTT assay. The following applies: Caco-2, MTT; 64 μg/mL (concentration for PIS-1 and PIS-3 implied by context); mean ± SD, n = 3. The protocol:
Caco-2 cells cultured with RPMI 1640 medium (containing 10% FBS and 1% penicillin-streptomycin) were incubated in a humidified CO2 (5%) atmosphere. Next, trypsin-treated cells (0.25%) were seeded in 96-well plates at a density of 5,000 per well and incubated for 24 h. Finally, cell viability of each well with fresh medium was tested by MTT assay.

Series [5] deals with Escherichia coli CMCC44102.
For series [6], the system named is MRSA N315.
The test system of series [7] is Staphylococcus aureus CMCC 26003.
For series [8], the system named is Staphylococcus aureus ATCC 6538.
In series [9] the test system is Staphylococcus aureus ATCC 12600.
Series [10] deals with Bacillus cereus CMCC 63301.
For series [11], the system named is Escherichia coli CMCC 44817.
The subject of series [12] is Shigalla Dysenteria CMCC 51252. The settings on record: CMCC 51252, 18 h.
Series [13] relates to Escherichia coli ATCC 8739.
The test system of series [14] is Staphylococcus aureus ATCC 29213.
In series [15] the test system is Bacillus pumilus CMCC 63202.
Series [16] has as its system mouse blood cells. The format is cell-based, mice. The protocol:
Blood cells taken from mice (ICR, male, 30–35 g) were treated with different concentrations of AMPs for 1 h. Meanwhile, Triton X-100 (0.2%) and phosphate-buffered saline (PBS, 0.01 moL^−1, pH 7.4) were used as positive and negative controls, respectively. After the reaction was completed, the OD576 value of each tube sample was determined and the hemolysis rate was calculated using the formula below[44],[45]:1 Hemolysisrate(%)=[(OD576sample−OD576blank)/(OD576TritonX−100−OD576blank)]×100%

The test system of series [17] is MRSA (ATCC 43300). The settings on record: chessboard with APC, MRSA ATCC 43300, 18 h; synergy defined as FIC index ≤ 0.5.
In series [18] the test system is pepsin, papain, and trypsin. The class given is in vitro ADME. The settings on record: pH 7.4. On the procedure: AMPs were exposed to proteases (including pepsin, papain, and trypsin) dissolved in PBS (pH 7.4) at 37 °C for 12 h. Subsequently, proteases in AMPs were inactivated by high-temperature treatment (95 °C, 5 min) and the activity of treated AMPs against MRSA (ATCC 43300) was determined. AMPs dissolved in PBS without proteases were used as controls.

The test system of series [19] is Shigella flexneri CMCC 51572. The settings on record: MHB, 37 °C, 18 h. The protocol: (§1) The minimum inhibitory concentration (MIC) was adopted to measure the antimicrobial spectrum of AMPs[42]. Specifically, experiments were executed by broth microdilution method in a 96-well plate (Corning) with an initial inoculum of 1.5 × 10^6 Colony-Forming units (CFU) mL^−1 in MHB based on Clinical and Laboratory Standards Institute (CLSI) guidelines. Inoculums were bacteria in the Mid-Logarithmic phase. To prevent edge effects, 96-well plates were placed in a constant temperature incubator (TSQ-280, Jianuo, China) at 37 °C. After 18 h of incubation, a microplate reader (SpectraMax i3, Molecular Devices, USA) was applied to determine the OD600 value of the plates. […] Simultaneously, the number of inactivated bacteria treated with different drugs was quantitatively determined by flow cytometry (BD Accuri C6 Plus, USA) combined with […] propidium iodide (PI, Thermo Fisher Scientific, USA)[43].

Series [20] concerns Shigella flexneri CMCC 51571. The following applies: MHB, 37 °C, 18 h. On the procedure: as §1
The subject of series [21] is Salmonella enterica CMCC 50335. The following applies: MHB, 37 °C, 18 h. The protocol:
as §1

The test system of series [22] is Shigella sonnei CMCC 51592. The settings on record: MHB, 37 °C, 18 h. On the procedure: as §1
The subject of series [23] is Staphylococcus aureus.

Converted amounts (≈) assume the structure as drawn. Where two headings read alike, the source gives them in different places. No end group written: not given here.

As to FIHHIFRGIVHLGRSIGRFLTG [PIS-A-2], in [1] (ATCC 43300, 18 h), the MIC was determined as 16 µg/mL.
Same read-out and setting: with FIHHIFRGIVHVGRS [PIS-A-4] the figure was 32 µg/mL.
The compound `CC1(C)S[C@@H]2[C@H](NC(=O)[C@H](N)c3ccccc3)C(=O)N2[C@H]1C(=O)O` [APC, Ampicillin] had an MIC in [2] of 16 µg/mL (≈ 45.8 µM). In addition, the “bactericidal activity in growth inhibition experiment, applied separately” value in series [3] was “no bactericidal activity”.
The compound FIHHIFRGIVHAG [PIS-A-5] yielded an MIC in [1] (ATCC 43300, 18 h) not below 64 µg/mL.
Same read-out and setting: with FIHHIFRGIVHVGRSIG [PIS-A-3] the figure was 32 µg/mL.
In series [2], `CN[C@H](CC(C)C)C(=O)N[C@H]1C(=O)N[C@@H](CC(N)=O)C(=O)N[C@H]2C(=O)N[C@H]3C(=O)N[C@H](C(=O)N[C@H](C(=O)O)c4cc(O)cc(O)c4-c4cc3ccc4O)[C@H](O)c3ccc(c(Cl)c3)Oc3cc2cc(c3O[C@@H]2O[C@H](CO)[C@@H](O)[C@H](O)[C@H]2O[C@H]2C[C@](C)(N)[C@H](O)[C@H](C)O2)Oc2ccc(cc2Cl)[C@H]1O` [VAN, vancomycin] came in with an MIC of 0.25 µg/mL (≈ 0.173 µM).
As for “FFHHIFRGIVHVGKTIHRLVTG [PIS-1] [listing 1 of 2 here]”, the cell viability – broadly, the share of living cells, or the viability signal relative to a control – in series [4] turned out to be 3.64 ± 0.79%.
As to FIHHIFRGIVHAGRSIGRFLTG [PIS-3], the MIC in [5] (CMCC44102, 18 h) was determined as 16 µg/mL; in series [6] (N315, 18 h), 16 µg/mL; in series [1] (ATCC 43300, 18 h), 32 µg/mL; in series [7] (CMCC 26003, 18 h), 32 µg/mL; in series [8] (ATCC 6538, 18 h), 16 µg/mL; in [9] (ATCC 12600, 18 h), 16 µg/mL. Besides, the MIC in [10] (CMCC 63301, 18 h) is 16 µg/mL; in series [11] (CMCC 44817, 18 h), 16 µg/mL; in series [12] it was 32 µg/mL; in series [13] (ATCC 8739, 18 h), 8 µg/mL; in series [14] (ATCC 29213, 18 h), 16 µg/mL; in series [15] (CMCC 63202, 18 h) it was 16 µg/mL.
Take GIVHAG [PIS-A-6]: the MIC in series [1] (ATCC 43300, 18 h) was not below 64 µg/mL.
As to FIHHIFRGIVHVGRSIGRFLTG [PIS-A-1], the “hemolysis at its MIC” value in [16] was “did not induce minimal hemolysis”. Further, the “HC50 (minimum AMP concentration producing 50% hemolysis of red blood cells)” value in [16] (red cells of mouse, 1 h) is 64 µg/mL. In addition, the MIC in series [6] (N315, 18 h) was found to be 8 µg/mL; in series [1] (ATCC 43300, 18 h), 8 µg/mL; in series [7] (CMCC 26003, 18 h), 16 µg/mL; in series [8] (ATCC 6538, 18 h), 8 µg/mL; in series [9] (ATCC 12600, 18 h), 8 µg/mL; in [10] (CMCC 63301, 18 h), 8 µg/mL. In addition, the MIC in [11] (CMCC 44817, 18 h) was 16 µg/mL; in [19] it was 16 µg/mL; in series [20], 8 µg/mL; in [21] it was 16 µg/mL; in series [22], 16 µg/mL; in series [12], 16 µg/mL. Moreover, the MIC was 8 µg/mL in series [13] (ATCC 8739, 18 h); 8 µg/mL in series [14] (ATCC 29213, 18 h); 16 µg/mL in series [15] (CMCC 63202, 18 h). The “FIC (FIC index) with APC” value in series [17] is 0.19. Also, the “resistance to enzymatic degradation (change of MIC against MRSA after protease treatment)” value in [18] is “least affected by enzymatic degradation”. Also, the “MIC against Staphylococcus aureus” value in series [23] (18 h) was 8~16 μg/mL.
In series [1] (ATCC 43300, 18 h), GIVHAGRSIGRFLTG [PIS-A-7] gave an MIC not below 64 µg/mL.
Turning to “FFHHIFRGIVHVGKTIHRLVTG [PIS-1] [listing 2 of 2 here]”, the MIC was determined as 16 µg/mL in series [5] (Escherichia coli CMCC44102, first listing in Supplementary table 1, MHB, 37 °C, 18 h); 4 µg/mL in series [5] (Escherichia coli CMCC 44102, second listing in Supplementary table 1, MHB, 37 °C, 18 h); 8 µg/mL in series [6] (MRSA N315, MHB, 37 °C, 18 h); 16 µg/mL in series [1] (MRSA ATCC 43300, broth microdilution in MHB, 1.5 × 10^6 CFU mL^−1, 37 °C, 18 h, OD600); 16 µg/mL in series [7] (Staphylococcus aureus CMCC 26003, MHB, 37 °C, 18 h); 8 µg/mL in series [8] (Staphylococcus aureus ATCC 6538, MHB, 37 °C, 18 h). Also, the MIC in series [9] (Staphylococcus aureus ATCC 12600, MHB, 37 °C, 18 h) amounted to 8 µg/mL; in [10] (Bacillus cereus CMCC 63301, MHB, 37 °C, 18 h), 16 µg/mL; in series [11] (Escherichia coli CMCC 44817, MHB, 37 °C, 18 h), 16 µg/mL; in [19], 8 µg/mL; in series [20], 8 µg/mL; in [21], 16 µg/mL. For the same compound, the MIC in series [22] was found to be 8 µg/mL; in series [12], 16 µg/mL; in series [13] (Escherichia coli ATCC 8739, first listing in Supplementary table 1, MHB, 37 °C, 18 h), 8 µg/mL; in [13] (Escherichia coli ATCC 8739, second listing in Supplementary table 1, MHB, 37 °C, 18 h), 8 µg/mL; in series [14] (Staphylococcus aureus ATCC 29213, MHB, 37 °C, 18 h), 8 µg/mL; in series [15] (Bacillus pumilus CMCC 63202, MHB, 37 °C, 18 h) it was 16 µg/mL. Besides, the “FIC (FIC index) with APC” value in series [17] is 0.31. Besides, the “MIC against Staphylococcus aureus” value in series [23] (range over Staphylococcus aureus strains) is reported as 8~16 μg/mL.
